Where two headings read alike, the source gives them in different places.
Assays:
[1] = system: Escherichia coli (NCTC 10418); assay: Antimicrobial screening, photobactericidal efficacy; assay type: cell-based
Description: (§1) The photobactericidal efficacies of the derivatives in addition to that of the known photosensitiser methylene blue were measured against both Gram positive Staphylococcus aureus (NCTC 6571) and Enterococcus faecalis (NCIMB 13280) and Gram negative Escherichia coli (NCTC 10418), Proteus mirabilis (NCIMB 5887) and a clinical strain of Klebsiella pneumoniae bacteria. Both strains were grown in Mueller-Hinton Broth and then diluted to a concentration of 10^6 colony-forming units/ml. Aliquots of the strains were then incubated for 1 hour at 37° C. in microtitre trays with various concentrations of photosensitiser in a range of from 100 to 3 μM, with zero photosensitiser concentrations in each case for control purposes. The trays were then either illuminated for twenty minutes using an array of light-emitting diodes (660 nm) giving a light dose of 6.2 J cm^−2 or alternatively foil-covered to provide dark controls. From each well showing an inhibition of growth of the micro-organism, 1 μl was sub-cultured on nutrient agar, using the Miles-Misra method, and incubated for 18 hours at 37° C. The minimum bactericidal concentrations were then determined as the lowest concentration for each photosensitiser giving no bacterial growth.

[2] = system: Staphylococcus aureus (NCTC 6571); assay: as above; assay type: cell-based
Description: as §1

[3] = Hydrophilic-lipophilic balance (Log P), phosphate-buffered saline / 1-octanol
Description: The data were calculated using the standard spectrophotometric method [ref] based on the relationship:
where A and A^1 are the absorption intensities before and after partitioning respectively and Vw and Vo are the respective volumes of the aqueous and 1-octanol phases. Determinations were repeated three times.

[4] = system: clinical strain of Klebsiella pneumoniae; assay: Antimicrobial screening, photobactericidal efficacy; assay type: cell-based; conditions: for Minimum bactericidal/fungicidal concentration K. pneumoniae Dark: foil-covered dark control; for Minimum bactericidal/fungicidal concentration K. pneumoniae Light: illuminated 20 min, LED 660 nm, 6.2 J cm^−2
Description: as §1

[5] = system: Proteus mirabilis (NCIMB 5887); assay: as above; assay type: cell-based; conditions: for Minimum bactericidal/fungicidal concentration P. mirabilis Dark: foil-covered dark control; for Minimum bactericidal/fungicidal concentration P. mirabilis Light: illuminated 20 min, LED 660 nm, 6.2 J cm^−2
Description: as §1

[6] = system: Enterococcus faecalis (NCIMB 13280); assay: as above; assay type: cell-based; conditions: for Minimum bactericidal/fungicidal concentration E. faecalis Dark: foil-covered dark control; for Minimum bactericidal/fungicidal concentration E. faecalis Light: illuminated 20 min, LED 660 nm, 6.2 J cm^−2
Description: as §1

[7] = system: Candida albicans (NCPF 8179); assay: Antifungal screening; assay type: cell-based; conditions: Sabouraud broth and agar; for Minimum bactericidal/fungicidal concentration C. albicans Dark: foil-covered dark control; for Minimum bactericidal/fungicidal concentration C. albicans Light: illuminated 20 min, LED 660 nm, 6.2 J cm^−2
[8] = Singlet oxygen production (TPCPD decolourisation in dichloromethane); conditions: singlet oxygen yield relative to methylene blue (= 1.0), time for 50% decrease in TPCPD absorption at 500 nm
Description: Thus the decrease in absorption at 500 nm was monitored spectrophotometrically with time using the method described by Cincotta et al. in “Novel red absorbing benzo[α]phenoxazinium and benzo[α]phenothiazinium photosensitizers: in vitro evaluation”, Photochem. […] To calculate the singlet oxygen yield for the derivative compounds of the present invention (ΦΔDer), the following formula was used:

[9] = value given for the standard photosensitiser; cited from earlier work
[10] = Escherichia coli, NCTC10418, foil-covered dark control, read-out: Minimum Bactericidal Concentration E. coli (Dark)
[11] = Escherichia coli, NCTC10418, illuminated 20 min, LED 660 nm, 6.2 J cm^−2, 1 h incubation at 37° C., read-out: Minimum Bactericidal Concentration E. coli (Light)
[12] = Staphylococcus aureus, NCTC6571, foil-covered dark control, read-out: Minimum Bactericidal Concentration S. aureus (Dark)
[13] = Staphylococcus aureus, NCTC6571, illuminated 20 min, LED 660 nm, 6.2 J cm^−2, 1 h incubation at 37° C., read-out: Minimum Bactericidal Concentration S. aureus (Light)
[14] = phosphate-buffered saline / 1-octanol
[15] = foil-covered dark control, read-out: Minimum Bactericidal Concentration E. coli (Dark)
[16] = illuminated 20 min, LED 660 nm, 6.2 J cm^−2, 1 h incubation at 37° C., read-out: Minimum Bactericidal Concentration E. coli (Light)
[17] = foil-covered dark control, read-out: Minimum Bactericidal Concentration S. aureus (Dark)
[18] = illuminated 20 min, LED 660 nm, 6.2 J cm^−2, 1 h incubation at 37° C., read-out: Minimum Bactericidal Concentration S. aureus (Light)
[19] = partition between phosphate-buffered saline and 1-octanol, spectrophotometric method, repeated three times

Row | Molecule | MBC [1, 10] | MBC [1, 11] | MBC [2, 12] | MBC [2, 13] | logP [3, 14] | Minimum bactericidal/fungicidal concentration K. pneumoniae Dark [4] | Minimum bactericidal/fungicidal concentration K. pneumoniae Light [4] | Minimum bactericidal/fungicidal concentration P. mirabilis Dark [5] | Minimum bactericidal/fungicidal concentration P. mirabilis Light [5] | Minimum bactericidal/fungicidal concentration E. faecalis Dark [6] | Minimum bactericidal/fungicidal concentration E. faecalis Light [6] | Minimum bactericidal/fungicidal concentration C. albicans Dark [7] | Minimum bactericidal/fungicidal concentration C. albicans Light [7] | Relative ΦΔ [8] | MBC [1, 15] | MBC [1, 16] | MBC [2, 17] | MBC [2, 18] | logP [3, 19] | singlet oxygen yield (ΦΔMB) [9]
1 | CCN(CC)CCCN(CCCN(CC)CC)c1ccc2nc3ccc(N(CCCN(CC)CC)CCCN(CC)CC)cc3[s+]c2c1 [Example 4b, 3,7-Bis(bis(3-(diethylamino)propyl)amino)phenothiazinium bromide] | 100 µM | 25 µM | 100 µM | 50 µM | 0.11 | – | – | – | – | – | – | – | – | – | – | – | – | – | – | –
2 | CCCCN(CCCC)c1ccc2nc3ccc(N4CCN(CCN5CCN(c6ccc7nc8ccc(N(CCCC)CCCC)cc8[s+]c7c6)CC5)CC4)cc3[s+]c2c1.[I-].[I-] [Example 7g, 7,7′-(4,4′-(ethane-1,2-diyl)bis(piperazine-4,1-diyl))bis(3-(dibutylamino)phenothiazin-5-ium)iodide] | – | – | – | – | – | 100 µM | 3.13 µM | 100 µM | 0.78 µM | 12.5 µM | 1.56 µM | 25 µM | 3.13 µM | – | – | – | – | – | – | –
3 | CCCN(CCC)c1ccc2nc3ccc(N(CCCN(C)C)CCCN(C)C)cc3[s+]c2c1 [Example 7e, 3-(Bis(3-(dimethylamino)propyl)amino)-7-(di-n-propylamino)phenothiazinium iodide] | > 100 µM | 3.12 µM | > 100 µM | 3.12 µM | – | 100 µM | 3.13 µM | 100 µM | 0.39 µM | 100 µM | 0.19 µM | 100 µM | 3.13 µM | – | – | – | – | – | – | –
4 | CN(C)CCCN(CCCN(C)C)c1ccc2nc3ccc(N(CCCN(C)C)CCCN(C)C)cc3[s+]c2c1 [Example 4a, 3,7-Bis(bis(3-(dimethylamino)propyl)amino)phenothiazinium bromide] | 12.5 µM | 3.12 µM | 6.25 µM | 3.12 µM | – | – | – | – | – | – | – | – | – | – | – | – | – | – | – | –
5 | CCN(CC)CCN(C)c1ccc2nc3ccc(N(C)CCN(CC)CC)cc3[s+]c2c1 [Example 4f, 3,7-Bis((2-(diethylamino)ethyl)(methyl)amino)phenothiazinium bromide] | > 100 µM | 3.12 µM | > 100 µM | 6.25 µM | 0.27 | – | – | – | – | – | – | – | – | 0.6 | – | – | – | – | – | –
6 | CCN(CC)CCCC(C)Nc1ccc2nc3ccc(N(CC)CC)cc3[s+]c2c1 (stereo not drawn) [Example 7a, 3-(Diethylamino)-7-(5-(diethylamino)pentan-2-ylamino)phenothiazinium iodide] | 100 µM | 50 µM | 100 µM | 25 µM | 0.65 | – | – | – | – | – | – | – | – | 0.2 | – | – | – | – | – | –
7 | 3-(Di-n-hexylamino)-7-((2-(diethylamino)ethyl)(ethyl)amino)phenothiazinium iodide [Example 7b] | – | – | – | – | – | 100 µM | 0.19 µM | 100 µM | 0.39 µM | 100 µM | 0.19 µM | 25 µM | 3.13 µM | 0.4 | 25 µM | 6.25 µM | 12.5 µM | 3.125 µM | +1.25 | –
8 | CO[Si](CCCNc1ccc2nc3ccc(N(C)C)cc3[s+]c2c1)(OC)OC [Example 2b, 3-(3-Trimethoxsilylpropyl)amino-7-dimethylaminophenothiazinium hydrogensulphate] | – | – | – | – | – | 100 µM | 1.56 µM | 100 µM | 1.56 µM | 50 µM | 0.78 µM | 25 µM | 3.13 µM | – | – | – | – | – | – | –
9 | CCCCN(CCCC)c1ccc2nc3ccc(N(CC)CCN(CC)CC)cc3[s+]c2c1 [Example 7c, 3-(Di-n-butylamino)-7-((2-(diethylamino)ethyl)(ethyl)amino)phenothiazinium iodide] | 25 µM | 6.25 µM | 25 µM | 12.5 µM | 1.09 | 100 µM | 6.25 µM | 100 µM | 0.78 µM | 6.25 µM | 0.39 µM | 25 µM | 3.13 µM | 0.3 | – | – | – | – | – | –
10 | OCCN(CCO)c1ccc2nc3ccc(NCCCN4CCOCC4)cc3[s+]c2c1.[I-] [Example 7f] | – | – | – | – | – | – | – | – | – | – | – | – | – | 0.2 | 50 µM | 25 µM | 25 µM | 25 µM | +0.57 | –
11 | CN(C)c1ccc2nc3ccc(N(C)C)cc3[s+]c2c1 [Methylene blue, reference compound] | – | 25 µM | – | 25 µM | – | – | – | – | – | – | – | – | – | 1.00 | – | – | – | – | – | 0.443
12 | CCN(CC)CCN(C)c1ccc2nc3ccc(N(CC)CC)cc3[s+]c2c1 [Example 7d, 3-(Diethylamino)-7-((2-(diethylamino)ethyl)(methyl)amino)phenothiazinium iodide] | 100 µM | 50 µM | 50 µM | 25 µM | 0.74 | – | – | – | – | – | – | – | – | 1.4 | – | – | – | – | – | –

Source: patent US20110306576A1, “COMPOUNDS AND METHODS RELATING THERETO” (PHARMALUCIA LIMITED, priority 2009, published 2011)
